The kinase profiling compilation of Christmann-Franck et al. (2016)

How the values were obtained:
Assay in all cases: radiometric filter-binding kinase assay
MARK3 (human) = MARK3 (human) (UniProt P27448); conditions: compound 10.0 µM
CHEK1 (human) = CHEK1 (human) (UniProt O14757); conditions: compound 10.0 µM
AURKA (human) = AURKA (human) (UniProt O14965)
PRKCZ (human) = PRKCZ (human) (UniProt Q05513); conditions: compound 10.0 µM
MKNK2 (human) = MKNK2 (human) (UniProt Q9HBH9); conditions: compound 10.0 µM
EPHB4 (human) = EPHB4 (human) (UniProt P54760); conditions: compound 10.0 µM
MAPK11 (human) = MAPK11 (human) (UniProt Q15759)
DYRK2 (human) = DYRK2 (human) (UniProt Q92630)
MAPK15 (human) = MAPK15 (human) (UniProt Q8TD08); conditions: compound 10.0 µM
ERBB4 (human) = ERBB4 (human) (UniProt Q15303)
TTK (human) = TTK (human) (UniProt P33981)
CaMK1 (human) = CaMK1 (human) (UniProt Q14012)
MAPK9 (human) = MAPK9 (human) (UniProt P45984)
PLK1 (human) = PLK1 (human) (UniProt P53350)
JAK2 JH1 JH2 (human) = JAK2 JH1 JH2 (human) (UniProt O60674); conditions: compound 10.0 µM
ROCK2 (rat) = conditions: compound 10.0 µM; accession and sequence are those of the human protein
PRKACA (human) = PRKACA (human) (UniProt P17612); conditions: compound 10.0 µM
NEK2 (human) = NEK2 (human) (UniProt P51955)
MAPKAPK5 (human) = MAPKAPK5 (human) (UniProt Q8IW41); conditions: compound 10.0 µM
MAPK13 (human) = MAPK13 (human) (UniProt O15264)
MAPK10 (human) = MAPK10 (human) (UniProt P53779)
YES1 (human) = YES1 (human) (UniProt P07947); conditions: compound 10.0 µM
PAK4 (human) = PAK4 (human) (UniProt O96013); conditions: compound 10.0 µM
STK3 (human) = STK3 (human) (UniProt Q13188); conditions: compound 10.0 µM
MAP3K9 (human) = MAP3K9 (human) (UniProt P80192)
TBK1 (human) = TBK1 (human) (UniProt Q9UHD2); conditions: compound 10.0 µM
EPHA4 (human) = EPHA4 (human) (UniProt P54764); conditions: compound 10.0 µM
MAPKAPK3 (human) = MAPKAPK3 (human) (UniProt Q16644)
[1] = test system: PAK2 (human), Q13177 [T402E]; conditions: compound 10.0 µM
PKN2 (human) = PKN2 (human) (UniProt Q16513); conditions: compound 10.0 µM
DYRK1A (human) = DYRK1A (human) (UniProt Q13627)
MAP3K7 TAB1 (human) = MAP3K7 TAB1 (human) (UniProt Q15750+O43318); conditions: compound 10.0 µM
CSK (human) = CSK (human) (UniProt P41240); conditions: compound 10.0 µM
IKBKE (human) = IKBKE (human) (UniProt Q14164)
MYLK (human) = MYLK (human) (UniProt Q15746); conditions: compound 10.0 µM

Sequence of MAPK10 (human) (P53779 whole entry, looked up): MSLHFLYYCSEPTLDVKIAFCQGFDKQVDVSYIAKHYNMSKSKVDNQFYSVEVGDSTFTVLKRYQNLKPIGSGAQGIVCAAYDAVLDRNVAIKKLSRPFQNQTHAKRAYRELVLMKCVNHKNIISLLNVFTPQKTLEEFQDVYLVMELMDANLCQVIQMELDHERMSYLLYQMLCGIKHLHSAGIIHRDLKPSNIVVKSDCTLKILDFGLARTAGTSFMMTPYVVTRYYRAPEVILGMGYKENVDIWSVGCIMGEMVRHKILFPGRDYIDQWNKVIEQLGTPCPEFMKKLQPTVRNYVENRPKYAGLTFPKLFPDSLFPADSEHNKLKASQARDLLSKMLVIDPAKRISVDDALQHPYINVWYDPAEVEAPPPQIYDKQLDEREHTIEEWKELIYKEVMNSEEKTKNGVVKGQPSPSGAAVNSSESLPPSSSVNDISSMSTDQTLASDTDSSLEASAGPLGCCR
Sequence of MAPK13 (human) (O15264 whole entry, looked up): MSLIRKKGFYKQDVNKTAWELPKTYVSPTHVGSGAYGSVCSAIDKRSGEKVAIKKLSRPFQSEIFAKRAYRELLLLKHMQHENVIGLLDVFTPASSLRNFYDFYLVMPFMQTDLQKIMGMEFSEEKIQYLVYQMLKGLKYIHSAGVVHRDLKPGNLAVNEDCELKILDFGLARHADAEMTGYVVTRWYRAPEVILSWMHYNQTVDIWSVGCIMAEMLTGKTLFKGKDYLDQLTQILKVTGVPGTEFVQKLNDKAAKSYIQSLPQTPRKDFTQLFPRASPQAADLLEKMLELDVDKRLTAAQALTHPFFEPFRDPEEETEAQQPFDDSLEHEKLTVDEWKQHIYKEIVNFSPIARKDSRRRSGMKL
Sequence of ERBB4 (human) (Q15303 whole entry, looked up): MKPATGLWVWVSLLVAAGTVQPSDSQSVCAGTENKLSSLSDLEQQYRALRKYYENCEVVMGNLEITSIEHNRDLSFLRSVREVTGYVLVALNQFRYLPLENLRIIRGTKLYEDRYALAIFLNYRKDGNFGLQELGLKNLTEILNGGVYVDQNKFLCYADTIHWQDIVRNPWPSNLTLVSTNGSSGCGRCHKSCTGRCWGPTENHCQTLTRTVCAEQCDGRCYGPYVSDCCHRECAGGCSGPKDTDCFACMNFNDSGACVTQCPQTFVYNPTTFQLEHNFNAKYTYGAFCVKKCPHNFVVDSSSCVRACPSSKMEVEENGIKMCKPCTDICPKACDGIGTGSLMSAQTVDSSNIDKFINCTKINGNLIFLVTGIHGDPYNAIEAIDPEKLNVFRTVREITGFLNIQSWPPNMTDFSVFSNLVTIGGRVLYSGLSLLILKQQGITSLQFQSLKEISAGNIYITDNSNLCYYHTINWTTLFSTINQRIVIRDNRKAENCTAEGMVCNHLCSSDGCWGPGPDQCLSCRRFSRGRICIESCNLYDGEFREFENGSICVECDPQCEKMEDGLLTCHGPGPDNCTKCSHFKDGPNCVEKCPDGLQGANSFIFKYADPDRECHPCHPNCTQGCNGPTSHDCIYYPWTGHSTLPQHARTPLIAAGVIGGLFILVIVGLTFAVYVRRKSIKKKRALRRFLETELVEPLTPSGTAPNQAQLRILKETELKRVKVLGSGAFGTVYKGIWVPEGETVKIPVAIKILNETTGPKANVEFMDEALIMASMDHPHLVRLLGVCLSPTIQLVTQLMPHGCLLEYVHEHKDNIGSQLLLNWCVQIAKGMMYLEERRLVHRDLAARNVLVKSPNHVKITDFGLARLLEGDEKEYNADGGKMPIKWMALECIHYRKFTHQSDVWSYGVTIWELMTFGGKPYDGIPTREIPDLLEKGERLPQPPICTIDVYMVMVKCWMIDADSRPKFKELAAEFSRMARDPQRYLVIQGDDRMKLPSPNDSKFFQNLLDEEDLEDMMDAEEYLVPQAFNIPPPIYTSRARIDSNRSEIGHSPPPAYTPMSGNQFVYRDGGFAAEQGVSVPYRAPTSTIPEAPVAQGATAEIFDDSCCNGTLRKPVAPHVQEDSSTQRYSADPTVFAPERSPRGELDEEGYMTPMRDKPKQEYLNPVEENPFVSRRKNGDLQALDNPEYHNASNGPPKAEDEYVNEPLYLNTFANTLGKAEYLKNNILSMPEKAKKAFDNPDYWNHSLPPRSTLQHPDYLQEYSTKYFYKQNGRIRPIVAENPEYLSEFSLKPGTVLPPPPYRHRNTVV
Sequence of AURKA (human) (O14965 whole entry, looked up): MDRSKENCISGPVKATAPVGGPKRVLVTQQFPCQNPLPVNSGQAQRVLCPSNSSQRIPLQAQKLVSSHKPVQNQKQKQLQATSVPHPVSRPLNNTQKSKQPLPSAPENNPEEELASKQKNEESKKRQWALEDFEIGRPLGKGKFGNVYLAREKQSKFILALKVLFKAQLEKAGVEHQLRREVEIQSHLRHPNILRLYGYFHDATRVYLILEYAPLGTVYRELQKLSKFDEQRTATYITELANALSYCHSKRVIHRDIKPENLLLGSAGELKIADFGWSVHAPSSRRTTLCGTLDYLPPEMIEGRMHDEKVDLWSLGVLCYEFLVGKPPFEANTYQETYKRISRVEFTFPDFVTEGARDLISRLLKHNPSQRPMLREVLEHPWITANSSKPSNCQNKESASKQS
Sequence of DYRK2 (human) (Q92630 whole entry, looked up): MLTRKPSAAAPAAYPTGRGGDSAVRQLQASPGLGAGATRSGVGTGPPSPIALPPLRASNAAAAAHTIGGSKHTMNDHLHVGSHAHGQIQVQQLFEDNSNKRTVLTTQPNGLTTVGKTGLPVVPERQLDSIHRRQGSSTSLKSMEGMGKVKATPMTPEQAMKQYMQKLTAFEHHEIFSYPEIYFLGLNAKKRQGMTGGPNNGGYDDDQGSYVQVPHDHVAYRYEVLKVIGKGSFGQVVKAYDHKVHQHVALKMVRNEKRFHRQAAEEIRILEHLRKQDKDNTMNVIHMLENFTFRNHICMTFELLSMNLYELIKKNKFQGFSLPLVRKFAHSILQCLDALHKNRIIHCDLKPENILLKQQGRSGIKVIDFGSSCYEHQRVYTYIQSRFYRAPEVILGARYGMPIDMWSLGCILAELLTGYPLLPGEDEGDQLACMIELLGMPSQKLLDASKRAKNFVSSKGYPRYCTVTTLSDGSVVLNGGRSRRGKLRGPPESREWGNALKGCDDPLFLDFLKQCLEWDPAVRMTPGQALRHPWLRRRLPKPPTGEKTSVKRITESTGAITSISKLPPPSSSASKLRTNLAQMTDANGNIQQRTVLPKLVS
Sequence of MAP3K9 (human) (P80192 whole entry, looked up): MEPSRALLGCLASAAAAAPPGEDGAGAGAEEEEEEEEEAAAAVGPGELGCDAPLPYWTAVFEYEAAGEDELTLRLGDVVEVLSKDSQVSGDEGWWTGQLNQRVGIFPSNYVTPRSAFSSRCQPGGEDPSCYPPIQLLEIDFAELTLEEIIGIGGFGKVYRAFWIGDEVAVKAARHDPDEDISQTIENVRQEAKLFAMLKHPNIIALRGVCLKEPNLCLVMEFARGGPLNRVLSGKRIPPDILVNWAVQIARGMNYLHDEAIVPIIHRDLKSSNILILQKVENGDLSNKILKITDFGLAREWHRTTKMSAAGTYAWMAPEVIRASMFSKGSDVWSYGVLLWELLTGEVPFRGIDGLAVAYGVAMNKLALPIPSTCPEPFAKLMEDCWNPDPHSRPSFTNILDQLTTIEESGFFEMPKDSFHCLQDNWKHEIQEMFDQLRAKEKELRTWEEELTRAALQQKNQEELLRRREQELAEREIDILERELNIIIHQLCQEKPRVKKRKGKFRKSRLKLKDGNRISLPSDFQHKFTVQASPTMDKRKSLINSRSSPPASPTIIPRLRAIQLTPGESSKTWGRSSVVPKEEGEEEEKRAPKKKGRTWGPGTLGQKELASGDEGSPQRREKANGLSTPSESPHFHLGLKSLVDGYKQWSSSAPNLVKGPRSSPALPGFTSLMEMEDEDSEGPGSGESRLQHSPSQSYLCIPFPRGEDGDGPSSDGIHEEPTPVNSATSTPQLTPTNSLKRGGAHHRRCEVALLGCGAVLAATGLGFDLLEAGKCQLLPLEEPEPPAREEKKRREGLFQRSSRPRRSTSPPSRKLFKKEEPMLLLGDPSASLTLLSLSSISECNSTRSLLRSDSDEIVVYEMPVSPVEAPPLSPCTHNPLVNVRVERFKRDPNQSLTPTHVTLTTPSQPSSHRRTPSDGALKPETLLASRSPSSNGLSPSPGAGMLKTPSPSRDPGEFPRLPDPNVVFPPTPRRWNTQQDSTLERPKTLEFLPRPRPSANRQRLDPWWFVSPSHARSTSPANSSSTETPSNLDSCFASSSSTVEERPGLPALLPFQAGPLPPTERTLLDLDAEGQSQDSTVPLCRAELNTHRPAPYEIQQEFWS
Sequence of CaMK1 (human) (Q14012 whole entry, looked up): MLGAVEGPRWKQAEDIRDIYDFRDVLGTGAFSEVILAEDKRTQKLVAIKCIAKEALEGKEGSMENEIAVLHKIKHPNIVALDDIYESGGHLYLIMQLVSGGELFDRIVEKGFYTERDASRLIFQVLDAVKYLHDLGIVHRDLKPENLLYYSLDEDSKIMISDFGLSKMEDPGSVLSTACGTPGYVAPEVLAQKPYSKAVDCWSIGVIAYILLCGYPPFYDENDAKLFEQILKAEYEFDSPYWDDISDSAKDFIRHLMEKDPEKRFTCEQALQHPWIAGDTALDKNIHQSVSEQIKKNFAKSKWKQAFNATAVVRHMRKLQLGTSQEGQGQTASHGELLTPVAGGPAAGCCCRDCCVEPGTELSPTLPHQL
Sequence of MAPKAPK3 (human) (Q16644 whole entry, looked up): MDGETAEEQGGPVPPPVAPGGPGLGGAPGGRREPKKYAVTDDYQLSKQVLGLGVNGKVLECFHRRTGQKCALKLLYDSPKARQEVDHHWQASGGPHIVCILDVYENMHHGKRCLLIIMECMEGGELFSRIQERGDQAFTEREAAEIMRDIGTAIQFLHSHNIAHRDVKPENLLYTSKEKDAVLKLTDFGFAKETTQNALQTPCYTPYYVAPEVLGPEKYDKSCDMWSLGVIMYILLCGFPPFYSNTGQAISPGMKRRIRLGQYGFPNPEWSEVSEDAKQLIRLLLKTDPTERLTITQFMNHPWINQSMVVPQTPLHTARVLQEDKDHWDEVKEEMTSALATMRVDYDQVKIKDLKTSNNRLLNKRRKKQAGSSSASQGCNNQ

Cc1nc(N)sc1-c1csc(Nc2cccnc2)n1
residual activity (MARK3 (human)): 84% | residual activity (CHEK1 (human)): 90% | residual activity (AURKA (human); compound 10.0 µM): 54% | residual activity (AURKA (human); compound 100.0 µM): 2% | residual activity (PRKCZ (human)): 95% | residual activity (MKNK2 (human)): 65% | residual activity (EPHB4 (human)): 97% | residual activity (MAPK11 (human); compound 10.0 µM): 96% | residual activity (MAPK11 (human); compound 100.0 µM): 87% | residual activity (DYRK2 (human); compound 10.0 µM): 50% | residual activity (DYRK2 (human); compound 100.0 µM): 8% | residual activity (MAPK15 (human)): 43% | residual activity (ERBB4 (human); compound 10.0 µM): 43% | residual activity (ERBB4 (human); compound 100.0 µM): 23% | residual activity (TTK (human); compound 10.0 µM): 53% | residual activity (TTK (human); compound 100.0 µM): 35% | residual activity (CaMK1 (human); compound 10.0 µM): 20% | residual activity (CaMK1 (human); compound 100.0 µM): 5% | residual activity (MAPK9 (human); compound 10.0 µM): 90% | residual activity (MAPK9 (human); compound 100.0 µM): 64% | residual activity (PLK1 (human); compound 10.0 µM): 35% | residual activity (PLK1 (human); compound 100.0 µM): 22% | residual activity (JAK2 JH1 JH2 (human)): 63% | residual activity (ROCK2 (rat)): 80% | residual activity (PRKACA (human)): 91% | residual activity (NEK2 (human); compound 10.0 µM): 42% | residual activity (NEK2 (human); compound 100.0 µM): 14% | residual activity (MAPKAPK5 (human)): 94% | residual activity (MAPK13 (human); compound 10.0 µM): 88% | residual activity (MAPK13 (human); compound 100.0 µM): 46% | residual activity (MAPK10 (human); compound 10.0 µM): 70% | residual activity (MAPK10 (human); compound 100.0 µM): 44% | residual activity (YES1 (human)): 77% | residual activity (PAK4 (human)): 74% | residual activity (STK3 (human)): 76% | residual activity (MAP3K9 (human); compound 10.0 µM): 95% | residual activity (MAP3K9 (human); compound 100.0 µM): 9% | residual activity (TBK1 (human)): 75% | residual activity (EPHA4 (human)): 106% | residual activity (MAPKAPK3 (human); compound 10.0 µM): 23% | residual activity (MAPKAPK3 (human); compound 100.0 µM): 5% | residual activity [1]: 89% | residual activity (PKN2 (human)): 76% | residual activity (DYRK1A (human); compound 10.0 µM): 33% | residual activity (DYRK1A (human); compound 100.0 µM): 11% | residual activity (MAP3K7 TAB1 (human)): 79% | residual activity (CSK (human)): 83% | residual activity (IKBKE (human); compound 10.0 µM): 67% | residual activity (IKBKE (human); compound 100.0 µM): 4% | residual activity (MYLK (human)): 68%
